Experimental data reported in US10584115B2, “Substituted pyridine and pyrazine BMI-1 inhibitors” (PTC Therapeutics, Inc., priority 2013, dated 2020).
Where two headings read alike, the source gives them in different places.

Tested on: Bmi-1 protein
Test: Sandwich ELISA Assay (Bmi-1 protein level in HT-1080 cells after compound treatment)
Format: cell-based
Method in brief: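 HT-1080 cells exposed to compounds for 40–48 h at 37 °C (0.5% DMSO final), then lysed. Bmi-1 in lysates measured by sandwich ELISA (mouse monoclonal capture, rabbit anti-Bmi-1 detection, HRP anti-rabbit, TMB), read at OD450 with OD570 reference against a recombinant Bmi-1 standard curve (0–8000 pg/mL).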

[1] = Table 1, Bmi-1 sandwich ELISA, read-out: ELISA EC50 value for Bmi-1 protein
[2] = read-out: ELISA EC50 value for Bmi-1 protein, Table 1, Bmi-1 sandwich ELISA

EC50 [1] | SMILES | EC50 [2]
10 to 100 nM | CCc1nc2ncc(Cl)cc2n1-c1cc(C#N)cc(Nc2ccc(OC(F)F)cc2)n1 [compound 452, 2-(6-chloro-2-ethyl-1H-imidazo[4,5-b]pyridin-1-yl)-6-{[4-(difluoromethoxy)phenyl]amino}pyridine-4-carbonitrile] | –
10 to 100 nM | Cc1nc2ncc(F)cn2c1-c1cncc(Nc2ccc(C(F)(F)F)cc2)n1 [compound 453, 6-(6-fluoro-2-methylimidazo[1,2-a]pyrimidin-3-yl)-N-[4-(trifluoromethyl)phenyl]pyrazin-2-amine] | –
– | Cn1nc2c(c1-c1cncc(Nc3ccc(C(F)(F)F)cc3)n1)CCCC2 [compound 454, 6-(2-methyl-4,5,6,7-tetrahydro-2H-indazol-3-yl)-N-[4-(trifluoromethyl)phenyl]pyrazin-2-amine] | 1 to 10 nM
10 to 100 nM | Fc1cnc2nc(C3CC3)n(-c3cncc(Nc4ccc(OC(F)F)cc4)n3)c2c1 [compound 455, 6-(2-cyclopropyl-6-fluoro-1H-imidazo[4,5-b]pyridin-1-yl)-N-[4-(difluoromethoxy)phenyl]pyrazin-2-amine] | –
100 to 3000 nM | Fc1cnc2nc(C3CC3)n(-c3cncc(Nc4ccc(OC(F)(F)F)cc4)n3)c2c1 [compound 456, 6-(2-cyclopropyl-6-fluoro-1H-imidazo[4,5-b]pyridin-1-yl)-N-[4-(trifluoromethoxy)phenyl]pyrazin-2-amine] | –
100 to 3000 nM | Cc1nc2ccccc2n1-c1cncc(Nc2ccc(C(F)(F)F)cn2)n1 [compound 457, 6-(2-methyl-1H-benzimidazol-1-yl)-N-[5-(trifluoromethyl)pyridin-2-yl]pyrazin-2-amine] | –
100 to 3000 nM | Fc1cnc2nc(C3CC3)n(-c3cncc(Nc4ccc(C(F)(F)F)nc4)n3)c2c1 [compound 458, 6-(2-cyclopropyl-6-fluoro-1H-imidazo[4,5-b]pyridin-1-yl)-N-[6-(trifluoromethyl)pyridin-3-yl]pyrazin-2-amine] | –
10 to 100 nM | Fc1cnc2nc(C3CC3)n(-c3cncc(Nc4ccc(OC(F)F)c(F)c4)n3)c2c1 [compound 459, 6-(2-cyclopropyl-6-fluoro-1H-imidazo[4,5-b]pyridin-1-yl)-N-[4-(difluoromethoxy)-3-fluorophenyl]pyrazin-2-amine] | –
10 to 100 nM | Fc1cc2nc(C3CC3)n(-c3cncc(Nc4ccc(OC(F)F)cc4)n3)c2cc1F [compound 460, 6-(2-cyclopropyl-5,6-difluoro-1H-benzimidazol-1-yl)-N-[4-(difluoromethoxy)phenyl]pyrazin-2-amine] | –
– | Cc1nc2ccccc2n1-c1ccc(N)c(Nc2ccc(C(F)(F)F)cc2)n1 [compound 465, 6-(2-methyl-1H-benzimidazol-1-yl)-N^2-[4-(trifluoromethyl)phenyl]pyridine-2,3-diamine] | 100 to 3000 nM
10 to 100 nM | N#Cc1cc(Nc2ccc(OC(F)F)c(F)c2)nc(-n2c(C3CC3)nc3c(F)cc(F)cc32)c1 [compound 476, 2-(2-cyclopropyl-4,6-difluoro-1H-benzimidazol-1-yl)-6-{[4-(difluoromethoxy)-3-fluorophenyl]amino}pyridine-4-carbonitrile] | –
100 to 3000 nM | FC(F)Oc1ccc(Nc2cncc(-c3cnc4ccccn34)n2)cc1 [compound 477, N-[4-(difluoromethoxy)phenyl]-6-(imidazo[1,2-a]pyridin-3-yl)pyrazin-2-amine] | –
10 to 100 nM | N#Cc1cc(Nc2ccc(C(F)(F)F)cc2)nc(-n2c(C3CC3)nc3ncc(F)cc32)c1 [compound 490, 2-(2-cyclopropyl-6-fluoro-1H-imidazo[4,5-b]pyridin-1-yl)-6-{[4-(trifluoromethyl)phenyl]amino}pyridine-4-carbonitrile] | –
10 to 100 nM | Cc1nc2cc(F)c(F)cc2n1-c1c[n+]([O-])cc(Nc2ccc(C(F)(F)F)cc2)n1 [compound 495, 6-(5,6-difluoro-2-methyl-1H-benzimidazol-1-yl)-N-[4-(trifluoromethyl)phenyl]pyrazin-2-amine 4-oxide] | –
10 to 100 nM | Cc1nc2ccccc2n1-c1cc(N)cc(Nc2ccc(OC(F)F)cc2)n1 [compound 496, N^2-[4-(difluoromethoxy)phenyl]-6-(2-methyl-1H-benzimidazol-1-yl)pyridine-2,4-diamine] | –
– | Cc1nn2ccccc2c1-c1cncc(Nc2ccc(C(F)(F)F)cc2)n1 [compound 497, 6-(2-methylpyrazolo[1,5-a]pyridin-3-yl)-N-[4-(trifluoromethyl)phenyl]pyrazin-2-amine] | 1 to 10 nM
1 to 10 nM | Cc1nn2ccccc2c1-c1cncc(Nc2ccc(OC(F)F)cc2)n1 [compound 498, N-[4-(difluoromethoxy)phenyl]-6-(2-methylpyrazolo[1,5-a]pyridin-3-yl)pyrazin-2-amine] | –
10 to 100 nM | Cc1nc2ccccc2n1-c1cc(F)cc(Nc2ccc(OC(F)F)cc2)n1 [compound 499, N-[4-(difluoromethoxy)phenyl]-4-fluoro-6-(2-methyl-1H-benzimidazol-1-yl)pyridin-2-amine] | –
10 to 100 nM | Cc1nn2ccccc2c1-c1cncc(Nc2ccc(OC(F)(F)F)cc2)n1 [compound 500, 6-(2-methylpyrazolo[1,5-a]pyridin-3-yl)-N-[4-(trifluoromethoxy)phenyl]pyrazin-2-amine] | –

EC50 [1] | SMILES | EC50 [2]
10 to 100 nM | Cc1nc2cc(F)c(F)cc2n1-c1cncc(Nc2ccc(C=O)cc2)n1 [compound 502, 4-{[6-(5,6-difluoro-2-methyl-1H-benzimidazol-1-yl)pyrazin-2-yl]amino}benzaldehyde] | –
10 to 100 nM | CCc1nc2cc(F)c(F)cc2n1-c1cc(N)cc(Nc2ccc(C(F)(F)F)cc2)n1 [compound 503, 6-(2-ethyl-5,6-difluoro-1H-benzimidazol-1-yl)-N^2-[4-(trifluoromethyl)phenyl]pyridine-2,4-diamine] | –
10 to 100 nM | Nc1cc(Nc2ccc(C(F)(F)F)cc2)nc(-n2c(C3CC3)nc3cc(F)c(F)cc32)c1 [compound 504, 6-(2-cyclopropyl-5,6-difluoro-1H-benzimidazol-1-yl)-N^2-[4-(trifluoromethyl)phenyl]pyridine-2,4-diamine] | –
10 to 100 nM | Cc1nc2cc(F)c(F)cc2n1-c1cc(N)c(F)c(Nc2ccc(C(F)(F)F)cc2)n1 [compound 505, 6-(5,6-difluoro-2-methyl-1H-benzimidazol-1-yl)-3-fluoro-N^2-[4-(trifluoromethyl)phenyl]pyridine-2,4-diamine] | –
10 to 100 nM | Cc1nc2ccccc2n1-c1cncc(Nc2ccc(C(F)(F)F)c(N)c2)n1 [compound 506, N^1-[6-(2-methyl-1H-benzimidazol-1-yl)pyrazin-2-yl]-4-(trifluoromethyl)benzene-1,3-diamine] | –
10 to 100 nM | Cc1nc2ccccc2n1-c1cncc(Nc2ccc(C(F)F)cc2)n1 [compound 507, N-[4-(difluoromethyl)phenyl]-6-(2-methyl-1H-benzimidazol-1-yl)pyrazin-2-amine] | –
10 to 100 nM | Cc1nc2ccccc2n1-c1cncc(Nc2ccc(C(F)F)c(F)c2)n1 [compound 508, N-[4-(difluoromethyl)-3-fluorophenyl]-6-(2-methyl-1H-benzimidazol-1-yl)pyrazin-2-amine] | –
10 to 100 nM | CCc1nc2cc(F)c(F)cc2n1-c1cc(N)c(F)c(Nc2ccc(C(F)(F)F)cc2)n1 [compound 509, 6-(2-ethyl-5,6-difluoro-1H-benzimidazol-1-yl)-3-fluoro-N^2-[4-(trifluoromethyl)phenyl]pyridine-2,4-diamine] | –
10 to 100 nM | CCc1nc2ccccc2n1-c1cc(N)cc(Nc2ccc(C(F)(F)F)cc2)n1 [compound 510, 6-(2-ethyl-1H-benzimidazol-1-yl)-N^2-[4-(trifluoromethyl)phenyl]pyridine-2,4-diamine] | –
– | Cc1nn2ccccc2c1-c1cc(C#N)cc(Nc2ccc(C(F)(F)F)cc2)n1 [compound 511, 2-(2-methylpyrazolo[1,5-a]pyridin-3-yl)-6-{[4-(trifluoromethyl)phenyl]amino}pyridine-4-carbonitrile] | 10 to 100 nM
10 to 100 nM | Cc1nn2ccccc2c1-c1cc(C#N)cc(Nc2ccc(OC(F)F)cc2)n1 [compound 512, 2-{[4-(difluoromethoxy)phenyl]amino}-6-(2-methylpyrazolo[1,5-a]pyridin-3-yl)pyridine-4-carbonitrile] | –
10 to 100 nM | Cc1nn2ccccc2c1-c1cc(C#N)cc(Nc2ccc(OC(F)F)c(F)c2)n1 [compound 513, 2-{[4-(difluoromethoxy)-3-fluorophenyl]amino}-6-(2-methylpyrazolo[1,5-a]pyridin-3-yl)pyridine-4-carbonitrile] | –
100 to 3000 nM | Cc1nn2ccccc2c1-c1cc(C#N)cc(Nc2ccc(OC(F)(F)F)cc2)n1 [compound 514, 2-(2-methylpyrazolo[1,5-a]pyridin-3-yl)-6-{[4-(trifluoromethoxy)phenyl]amino}pyridine-4-carbonitrile] | –
10 to 100 nM | Cc1nc2ccccc2n1-c1cc(N)c(F)c(Nc2ccc(C(F)(F)F)cc2)n1 [compound 515, 3-fluoro-6-(2-methyl-1H-benzimidazol-1-yl)-N^2-[4-(trifluoromethyl)phenyl]pyridine-2,4-diamine] | –
10 to 100 nM | Cc1nc2cc(F)c(F)cc2n1-c1c[n+]([O-])cc(Nc2ccc(OC(F)F)cc2)n1 [compound 516, N-[4-(difluoromethoxy)phenyl]-6-(5,6-difluoro-2-methyl-1H-benzimidazol-1-yl)pyrazin-2-amine 4-oxide] | –
100 to 3000 nM | Cc1nc2ccccc2n1-c1cncc(Nc2ccc(C(F)(F)F)c(C#N)c2)n1 [compound 517, 5-{[6-(2-methyl-1H-benzimidazol-1-yl)pyrazin-2-yl]amino}-2-(trifluoromethyl)benzonitrile] | –
10 to 100 nM | Cc1nc2ccccc2n1-c1cncc(Nc2ccc(C(F)(F)F)c(CO)c2)n1 [compound 519] | –
1 to 10 nM | CCc1nn2ccccc2c1-c1cncc(Nc2ccc(C(F)(F)F)cc2)n1 [compound 520, 6-(2-ethylpyrazolo[1,5-a]pyridin-3-yl)-N-[4-(trifluoromethyl)phenyl]pyrazin-2-amine] | –
